Source: patent US20230340011A1 (Asteroid Therapeutics, priority 2022, published 2023)
pIC50: −log10 of the molar value. Read-outs that look alike come from different tables or passages of the source.

Target: SREBP-2 (Homo sapiens (Human), UniProt Q12772)
Assay: In vitro assay SREBP-2: PathHunter U2OS SREBP-2 Nuclear Translocation Cell Line, U18666A-stimulated
Type: cell-based
[1] = PathHunter U2OS SREBP-2 nuclear translocation cells, U18666A 10 μM, overnight (16 hours)

| Compound | pIC50 [1] | pIC50 |
| --- | --- | --- |
| C[C@H](COc1ccc(CO)cn1)[C@H]1CC[C@H]2[C@@H]3CC=C4C[C@@H](O)CC[C@]4(C)[C@H]3CC[C@]12C [Example 445, (3S,8S,9S,10R,13S,14S,17R)-17-((S)-1-((5-(hydroxymethyl)pyridin-2-yl)oxy)propan-2-yl)-10,13-dimethyl-2,3,4,7,8,9,10,11,12,13,14,15,16,17-tetradecahydro-1H-cyclopenta[a]phenanthren-3-ol] | 6.00 to 6.60 | – |
| C[C@H](COc1cc(CO)ccn1)[C@H]1CC[C@H]2[C@@H]3CC=C4C[C@@H](O)CC[C@]4(C)[C@H]3CC[C@]12C [Example 446, (3S,8S,9S,10R,13S,14S,17R)-17-((S)-1-((4-(hydroxymethyl)pyridin-2-yl)oxy)propan-2-yl)-10,13-dimethyl-2,3,4,7,8,9,10,11,12,13,14,15,16,17-tetradecahydro-1H-cyclopenta[a]phenanthren-3-ol] | > 6.60 | – |
| CC[C@H]1NC[C@@H]2CON(C(=O)CC[C@@H](C)[C@H]3CC[C@H]4[C@@H]5CC=C6C[C@@H](O)CC[C@]6(C)[C@H]5CC[C@]34C)[C@@H]21 [Example 47, (R)-1-((3aS,6R,6aS)-6-ethylhexahydro-1H-pyrrolo[3,4-c]isoxazol-1-yl)-4-((3S,8S,9S,10R,13R,14S,17R)-3-hydroxy-10,13-dimethyl-2,3,4,7,8,9,10,11,12,13,14,15,16,17-tetradecahydro-1H-cyclopenta[a]phenanthren-17-yl)pentan-1-one] | 6.00 to 6.60 | – |
| C[C@H](CC[C@](O)(C1CCC1)C(F)(F)F)[C@H]1CC[C@H]2[C@@H]3CC=C4C[C@@H](O)CC[C@]4(C)[C@H]3CC[C@]12C [Example 25, (3S,8S,9S,10R,13R,14S,17R)-17-((2R,5S)-5-cyclobutyl-6,6,6-trifluoro-5-hydroxyhexan-2-yl)-10,13-dimethyl-2,3,4,7,8,9,10,11,12,13,14,15,16,17-tetradecahydro-1H-cyclopenta[a]phenanthren-3-ol] | 6.00 to 6.60 | – |
| CCN(CCc1ccccn1)C(=O)CC[C@@H](C)[C@H]1CC[C@H]2[C@@H]3CC=C4C[C@@H](O)CC[C@]4(C)[C@H]3CC[C@]12C [Example 541, (4R)-4-[(1R,3aS,3bS,7S,9aR,9bS,11aR)-7-hydroxy-9a,11a-dimethyl-1H,2H,3H,3aH,3bH,4H,6H,7H,8H,9H,9aH,9bH,10H,11H,11aH-cyclopenta[a]phenanthren-1-yl]-N-ethyl-N-[2-(pyridin-2-yl)ethyl]pentanamide] | > 6.60 | – |
| Cc1cccc(OC[C@@H](C)[C@H]2CC[C@H]3[C@@H]4CC=C5C[C@@H](O)CC[C@]5(C)[C@H]4CC[C@]23C)n1 [Example 440, (1R,3aS,3bS,7S,9aR,9bS,11aS)-9a,11a-dimethyl-1-[(2S)-1-[(6-methylpyridin-2-yl)oxy]propan-2-yl]-1H,2H,3H,3aH,3bH,4H,6H,7H,8H,9H,9aH,9bH,10H,11H,11aH-cyclopenta[a]phenanthren-7-ol] | 6.00 to 6.60 | – |
| C[C@H](CCC(=O)N1CCN(C(=O)OC2COC2)CC1)[C@H]1CC[C@H]2[C@@H]3CC=C4C[C@@H](O)CC[C@]4(C)[C@H]3CC[C@]12C [Example 425, oxetan-3-yl4-((R)-4-((3S,8S,9S,10R,13R,14S,17R)-3-hydroxy-10,13-dimethyl-2,3,4,7,8,9,10,11,12,13,14,15,16,17-tetradecahydro-1H-cyclopenta[a]phenanthren-17-yl)pentanoyl)piperazine-1-carboxylate] | – | > 6.60 |
| Cc1ccc(OC[C@@H](C)[C@H]2CC[C@H]3[C@@H]4CC=C5C[C@@H](O)CC[C@]5(C)[C@H]4CC[C@]23C)nc1 [Example 263, (3S,8S,9S,10R,13S,14S,17R)-10,13-dimethyl-17-((S)-1-((5-methylpyridin-2-yl)oxy)propan-2-yl)-2,3,4,7,8,9,10,11,12,13,14,15,16,17-tetradecahydro-1H-cyclopenta[a]phenanthren-3-ol] | 6.00 to 6.60 | – |
| C[C@H](CCC(=O)N1CCC(OC(=O)N(C)C)CC1)[C@H]1CC[C@H]2[C@@H]3CC=C4C[C@@H](O)CC[C@]4(C)[C@H]3CC[C@]12C [Example 418, 1-((R)-4-((3S,8S,9S,10R,13R,14S,17R)-3-hydroxy-10,13-dimethyl-2,3,4,7,8,9,10,11,12,13,14,15,16,17-tetradecahydro-1H-cyclopenta[a]phenanthren-17-yl)pentanoyl)piperidin-4-yl dimethylcarbamate] | 5.00 to 6.00 | – |
| C[C@H](CCC(=O)N1CCC[C@H](Oc2ccncc2)C1)[C@H]1CC[C@H]2[C@@H]3CC=C4C[C@@H](O)CC[C@]4(C)[C@H]3CC[C@]12C [Example 520, (R)-4-((3S,8S,9S,10R,13R,14S,17R)-3-hydroxy-10,13-dimethyl-2,3,4,7,8,9,10,11,12,13,14,15,16,17-tetradecahydro-1H-cyclopenta[a]phenanthren-17-yl)-1-((S)-3-(pyridin-4-yloxy)piperidin-1-yl)pentan-1-one] | > 6.60 | – |
| C[C@H](CCC(=O)N(C)CCc1ccncc1)[C@H]1CC[C@H]2[C@@H]3CC=C4C[C@@H](O)CC[C@]4(C)[C@H]3CC[C@]12C [Example 544, (R)-4-((3S,8S,9S,10R,13R,14S,17R)-3-hydroxy-10,13-dimethyl-2,3,4,7,8,9,10,11,12,13,14,15,16,17-tetradecahydro-1H-cyclopenta[a]phenanthren-17-yl)-N-methyl-N-(2-(pyridin-4-yl)ethyl)pentanamide] | > 6.60 | – |
| CNC(=O)O[C@@H](C)[C@H]1CC[C@H]2[C@@H]3CC=C4C[C@@H](O)CC[C@]4(C)[C@H]3CC[C@]12C [Example 243, (1S)-1-[(1S,3aS,3bS,7S,9aR,9bS,11aS)-7-hydroxy-9a,11a-dimethyl-1H,2H,3H,3aH,3bH,4H,6H,7H,8H,9H,9aH,9bH,10H,11H,11aH-cyclopenta[a]phenanthren-1-yl]ethyl N-methylcarbamate] | – | > 6.60 |
| C[C@H](COc1cccc(CO)n1)[C@H]1CC[C@H]2[C@@H]3CC=C4C[C@@H](O)CC[C@]4(C)[C@H]3CC[C@]12C [Example 444, (3S,8S,9S,10R,13S,14S,17R)-17-((S)-1-((6-(hydroxymethyl)pyridin-2-yl)oxy)propan-2-yl)-10,13-dimethyl-2,3,4,7,8,9,10,11,12,13,14,15,16,17-tetradecahydro-1H-cyclopenta[a]phenanthren-3-ol] | > 6.60 | – |
| CC#CC1(O)CCN(C(=O)CC[C@@H](C)[C@H]2CC[C@H]3[C@@H]4CC=C5C[C@@H](O)CC[C@]5(C)[C@H]4CC[C@]23C)CC1 [Example 90, (R)-4-((3S,8S,9S,10R,13R,14S,17R)-3-hydroxy-10,13-dimethyl-2,3,4,7,8,9,10,11,12,13,14,15,16,17-tetradecahydro-1H-cyclopenta[a]phenanthren-17-yl)-1-(4-hydroxy-4-(prop-1-yn-1-yl)piperidin-1-yl)pentan-1-one] | > 6.60 | – |
| Cc1ccnc(OC[C@@H](C)[C@H]2CC[C@H]3[C@@H]4CC=C5C[C@@H](O)CC[C@]5(C)[C@H]4CC[C@]23C)c1 [Example 262, (1R,3aS,3bS,7S,9aR,9bS,11aS)-9a,11a-dimethyl-1-[(2S)-1-[(4-methylpyridin-2-yl)oxy]propan-2-yl]-1H,2H,3H,3aH,3bH,4H,6H,7H,8H,9H,9aH,9bH,10H,11H,11aH-cyclopenta[a]phenanthren-7-ol] | > 6.60 | – |
| C[C@H](CCC(=O)N1CC[C@@H](Oc2ccncc2)C[C@@H]1C)[C@H]1CC[C@H]2[C@@H]3CC=C4C[C@@H](O)CC[C@]4(C)[C@H]3CC[C@]12C [Example 586, (R)-4-((3S,8S,9S,10R,13R,14S,17R)-3-hydroxy-10,13-dimethyl-2,3,4,7,8,9,10,11,12,13,14,15,16,17-tetradecahydro-1H-cyclopenta[a]phenanthren-17-yl)-1-((2S,4R)-2-methyl-4-(pyridin-4-yloxy)piperidin-1-yl)pentan-1-one] | > 6.60 | – |
| Cc1ccnc(OC[C@@H](C)[C@H]2CC[C@H]3[C@@H]4CC=C5C[C@@H](O)CC[C@]5(C)[C@H]4CC[C@]23C)c1 [Example 442, (1R,3aS,3bS,7S,9aR,9bS,11aS)-9a,11a-dimethyl-1-[(2S)-1-[(4-methylpyridin-2-yl)oxy]propan-2-yl]-1H,2H,3H,3aH,3bH,4H,6H,7H,8H,9H,9aH,9bH,10H,11H,11aH-cyclopenta[a]phenanthren-7-ol] | > 6.60 | – |
| C[C@H](CCC(=O)N1CCC(N(C)S(C)(=O)=O)CC1)[C@H]1CC[C@H]2[C@@H]3CC=C4C[C@@H](O)CC[C@]4(C)[C@H]3CC[C@]12C [Example 415, N-{1-[(4R)-4-[(1R,3aS,3bS,7S,9aR,9bS,11aR)-7-hydroxy-9a,11a-dimethyl-1H,2H,3H,3aH,3bH,4H,6H,7H,8H,9H,9aH,9bH,10H,11H,11aH-cyclopenta[a]phenanthren-1-yl]pentanoyl]piperidin-4-yl}-N-methylmethanesulfonamide] | 6.00 to 6.60 | – |
| CNC(=O)N[C@H]1CCN(C(=O)CC[C@@H](C)[C@H]2CC[C@H]3[C@@H]4CC=C5C[C@@H](O)CC[C@]5(C)[C@H]4CC[C@]23C)C1 [Example 533, 1-((S)-1-((R)-4-((3S,8S,9S,10R,13R,14S,17R)-3-hydroxy-10,13-dimethyl-2,3,4,7,8,9,10,11,12,13,14,15,16,17-tetradecahydro-1H-cyclopenta[a]phenanthren-17-yl)pentanoyl)pyrrolidin-3-yl)-3-methylurea] | > 6.60 | – |
| Cc1ccncc1O[C@@H](C)[C@H]1CC[C@H]2[C@@H]3CC=C4C[C@@H](O)CC[C@]4(C)[C@H]3CC[C@]12C [Example 271, (3S,8S,9S,10R,13S,14S,17S)-10,13-dimethyl-17-((S)-1-((4-methylpyridin-3-yl)oxy)ethyl)-2,3,4,7,8,9,10,11,12,13,14,15,16,17-tetradecahydro-1H-cyclopenta[a]phenanthren-3-ol] | 6.00 to 6.60 | – |
| Cc1ccc(O[C@@H](C)[C@H]2CC[C@H]3[C@@H]4CC=C5C[C@@H](O)CC[C@]5(C)[C@H]4CC[C@]23C)cn1 [Example 273, (1S,3aS,3bS,7S,9aR,9bS,11aS)-9a,11a-dimethyl-1-[(1S)-1-[(6-methylpyridin-3-yl)oxy]ethyl]-1H,2H,3H,3aH,3bH,4H,6H,7H,8H,9H,9aH,9bH,10H,11H,11aH-cyclopenta[a]phenanthren-7-ol] | > 6.60 | – |
